Experimental data as given in ChEMBL document CHEMBL4507296 (2021).

Tests used:
[1] = biological target: LIM domain kinase 1 (Homo sapiens) (UniProt P53667); details: Compound concentration 1000.0 nM
[2] = biological target: Receptor-interacting serine/threonine-protein kinase 2 (Homo sapiens) (UniProt O43353); details: Compound concentration 1000.0 nM
[3] = biological target: Proto-oncogene tyrosine-protein kinase receptor Ret (Homo sapiens) (UniProt P07949); details: Compound concentration 1000.0 nM
[4] = biological target: Serine/threonine-protein kinase 32A (Homo sapiens) (UniProt Q8WU08); details: Compound concentration 1000.0 nM
[5] = biological target: Receptor-interacting serine/threonine-protein kinase 4 (Homo sapiens) (UniProt P57078); details: Compound concentration 1000.0 nM
[6] = biological target: Serine/threonine-protein kinase N1 (Homo sapiens) (UniProt Q16512); details: Compound concentration 1000.0 nM
[7] = biological target: Proto-oncogene tyrosine-protein kinase Src (Homo sapiens) (UniProt P12931); details: Compound concentration 1000.0 nM
[8] = biological target: Mitotic checkpoint serine/threonine-protein kinase BUB1 (Homo sapiens) (UniProt O43683); details: Compound concentration 1000.0 nM
[9] = biological target: Ribosomal protein S6 kinase alpha-4 (Homo sapiens) (UniProt O75676); details: Compound concentration 1000.0 nM
[10] = biological target: Serine/threonine-protein kinase Nek6 (Homo sapiens) (UniProt Q9HC98); details: Compound concentration 1000.0 nM
[11] = biological target: Dual specificity mitogen-activated protein kinase kinase 7 (Homo sapiens) (UniProt O14733); details: Compound concentration 1000.0 nM
[12] = biological target: Myosin light chain kinase family member 4 (Homo sapiens) (UniProt Q86YV6); details: Compound concentration 1000.0 nM
[13] = biological target: MAP/microtubule affinity-regulating kinase 3 (Homo sapiens) (UniProt P27448); details: Compound concentration 1000.0 nM
[14] = biological target: Serine/threonine-protein kinase BRSK2 (Homo sapiens) (UniProt Q8IWQ3); details: Compound concentration 1000.0 nM
[15] = biological target: Ephrin type-B receptor 1 (Homo sapiens) (UniProt P54762); details: Compound concentration 1000.0 nM
[16] = biological target: Mitogen-activated protein kinase kinase kinase kinase 1 (Homo sapiens) (UniProt Q92918); details: Compound concentration 1000.0 nM
[17] = biological target: Dual specificity testis-specific protein kinase 1 (Homo sapiens) (UniProt Q15569); details: Compound concentration 1000.0 nM
[18] = biological target: BDNF/NT-3 growth factors receptor (Homo sapiens) (UniProt Q16620); details: Compound concentration 1000.0 nM
[19] = biological target: Beta-adrenergic receptor kinase 1 (Homo sapiens) (UniProt P25098); details: Compound concentration 1000.0 nM
[20] = biological target: Serine/threonine-protein kinase SIK2 (Homo sapiens) (UniProt Q9H0K1); details: Compound concentration 1000.0 nM
[21] = biological target: SRSF protein kinase 3 (Homo sapiens) (UniProt Q9UPE1); details: Compound concentration 1000.0 nM
[22] = biological target: 5'-AMP-activated protein kinase catalytic subunit alpha-2 (Homo sapiens) (UniProt P54646); details: Compound concentration 1000.0 nM
[23] = biological target: T1, Alpha-2B adrenergic receptor (Homo sapiens) (UniProt P18089); test: Adrenergic a2b (human) CEREP ligand profiling; details: Compound concentration 10.0 uM
T1 sequence (whole entry): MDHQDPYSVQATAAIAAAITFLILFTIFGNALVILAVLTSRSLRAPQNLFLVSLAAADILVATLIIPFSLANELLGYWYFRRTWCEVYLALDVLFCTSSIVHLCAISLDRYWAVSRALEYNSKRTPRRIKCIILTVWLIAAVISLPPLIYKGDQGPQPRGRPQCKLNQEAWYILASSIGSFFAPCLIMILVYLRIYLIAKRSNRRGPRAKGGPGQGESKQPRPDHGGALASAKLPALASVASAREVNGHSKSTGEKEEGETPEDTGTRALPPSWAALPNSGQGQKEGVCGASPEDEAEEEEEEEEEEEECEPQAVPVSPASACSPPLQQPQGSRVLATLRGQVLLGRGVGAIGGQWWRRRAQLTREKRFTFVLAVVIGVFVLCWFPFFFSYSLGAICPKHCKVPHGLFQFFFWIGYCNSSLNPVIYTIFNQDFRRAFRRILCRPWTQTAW

[24] = biological target: Mitogen-activated protein kinase kinase kinase 19 (Homo sapiens) (UniProt Q56UN5); details: Compound concentration 1000.0 nM
[25] = biological target: Tyrosine-protein kinase FRK (Homo sapiens) (UniProt P42685); details: Compound concentration 1000.0 nM
[26] = biological target: Death-associated protein kinase 2 (Homo sapiens) (UniProt Q9UIK4); details: Compound concentration 1000.0 nM
[27] = biological target: Glycogen synthase kinase-3 beta (Homo sapiens) (UniProt P49841); details: Compound concentration 1000.0 nM
[28] = biological target: Tyrosine-protein kinase ZAP-70 (Homo sapiens) (UniProt P43403); details: Compound concentration 1000.0 nM
[29] = biological target: Mitogen-activated protein kinase 11 (Homo sapiens) (UniProt Q15759); details: Compound concentration 1000.0 nM
[30] = biological target: Atypical kinase COQ8B, mitochondrial (Homo sapiens) (UniProt Q96D53); details: Compound concentration 1000.0 nM
[31] = biological target: Serine/threonine-protein kinase TBK1 (Homo sapiens) (UniProt Q9UHD2); details: Compound concentration 1000.0 nM
[32] = biological target: Serine/threonine-protein kinase 32C (Homo sapiens) (UniProt Q86UX6); details: Compound concentration 1000.0 nM
[33] = biological target: Tyrosine-protein kinase SYK (Homo sapiens) (UniProt P43405); details: Compound concentration 1000.0 nM
[34] = biological target: Cyclin-dependent kinase 2 homolog (Plasmodium falciparum (isolate 3D7)) (UniProt P61075); details: Compound concentration 1000.0 nM
[35] = biological target: Muscarinic acetylcholine receptor M2 (Homo sapiens) (UniProt P08172); details: Compound concentration 10.0 uM
[36] = biological target: Fibroblast growth factor receptor 2 (Homo sapiens) (UniProt P21802); details: Compound concentration 1000.0 nM
[37] = test system: Tyrosine-protein kinase ABL1 (Homo sapiens), P00519 [H396P]; details: Compound concentration 1000.0 nM
[38] = biological target: Serine/threonine-protein kinase 26 (Homo sapiens) (UniProt Q9P289); details: Compound concentration 1000.0 nM
[39] = biological target: Serine/threonine-protein kinase Sgk1 (Homo sapiens) (UniProt O00141); details: Compound concentration 1000.0 nM

Glycogen synthase kinase-3 beta (Homo sapiens), sequence (P49841 whole entry, looked up): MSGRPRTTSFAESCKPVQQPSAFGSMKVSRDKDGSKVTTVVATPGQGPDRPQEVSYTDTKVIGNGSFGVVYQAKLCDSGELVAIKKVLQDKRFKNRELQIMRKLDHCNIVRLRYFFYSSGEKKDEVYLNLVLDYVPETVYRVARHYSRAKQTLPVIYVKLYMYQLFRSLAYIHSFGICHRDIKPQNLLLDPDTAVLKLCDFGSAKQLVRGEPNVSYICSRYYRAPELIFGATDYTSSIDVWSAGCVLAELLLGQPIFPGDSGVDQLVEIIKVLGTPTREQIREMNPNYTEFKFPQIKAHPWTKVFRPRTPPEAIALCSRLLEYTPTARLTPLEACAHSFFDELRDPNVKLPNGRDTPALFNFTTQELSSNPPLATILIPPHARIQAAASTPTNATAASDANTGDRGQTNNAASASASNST
Proto-oncogene tyrosine-protein kinase receptor Ret (Homo sapiens), sequence (P07949 whole entry): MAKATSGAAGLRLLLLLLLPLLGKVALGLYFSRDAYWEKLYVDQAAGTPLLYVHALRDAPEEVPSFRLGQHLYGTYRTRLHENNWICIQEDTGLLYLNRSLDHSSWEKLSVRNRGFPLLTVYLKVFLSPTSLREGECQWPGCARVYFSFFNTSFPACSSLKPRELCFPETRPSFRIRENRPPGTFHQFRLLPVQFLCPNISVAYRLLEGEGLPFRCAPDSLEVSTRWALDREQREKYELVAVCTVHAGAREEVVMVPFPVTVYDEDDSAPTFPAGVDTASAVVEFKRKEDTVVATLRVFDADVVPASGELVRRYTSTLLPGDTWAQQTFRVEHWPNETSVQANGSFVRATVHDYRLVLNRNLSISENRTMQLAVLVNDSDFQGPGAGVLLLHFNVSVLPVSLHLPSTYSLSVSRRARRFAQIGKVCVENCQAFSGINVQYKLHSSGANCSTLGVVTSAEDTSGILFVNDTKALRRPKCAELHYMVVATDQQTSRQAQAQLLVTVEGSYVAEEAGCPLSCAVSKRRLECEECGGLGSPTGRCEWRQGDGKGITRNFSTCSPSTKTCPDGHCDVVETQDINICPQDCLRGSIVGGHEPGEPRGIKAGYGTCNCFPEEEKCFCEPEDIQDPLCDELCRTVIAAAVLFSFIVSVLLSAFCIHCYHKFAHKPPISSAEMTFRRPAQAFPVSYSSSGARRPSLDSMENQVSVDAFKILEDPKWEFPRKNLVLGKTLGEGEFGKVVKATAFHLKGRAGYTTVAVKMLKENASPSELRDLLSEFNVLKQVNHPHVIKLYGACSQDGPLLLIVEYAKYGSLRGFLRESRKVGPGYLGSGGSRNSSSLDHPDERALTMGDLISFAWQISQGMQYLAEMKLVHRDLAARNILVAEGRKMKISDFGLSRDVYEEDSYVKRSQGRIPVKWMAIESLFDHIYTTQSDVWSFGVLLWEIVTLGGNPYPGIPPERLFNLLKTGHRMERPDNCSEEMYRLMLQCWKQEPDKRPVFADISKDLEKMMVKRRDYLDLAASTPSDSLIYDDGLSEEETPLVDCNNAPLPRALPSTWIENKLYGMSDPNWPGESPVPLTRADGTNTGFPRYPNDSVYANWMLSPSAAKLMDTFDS
Atypical kinase COQ8B, mitochondrial (Homo sapiens), sequence (Q96D53 whole entry): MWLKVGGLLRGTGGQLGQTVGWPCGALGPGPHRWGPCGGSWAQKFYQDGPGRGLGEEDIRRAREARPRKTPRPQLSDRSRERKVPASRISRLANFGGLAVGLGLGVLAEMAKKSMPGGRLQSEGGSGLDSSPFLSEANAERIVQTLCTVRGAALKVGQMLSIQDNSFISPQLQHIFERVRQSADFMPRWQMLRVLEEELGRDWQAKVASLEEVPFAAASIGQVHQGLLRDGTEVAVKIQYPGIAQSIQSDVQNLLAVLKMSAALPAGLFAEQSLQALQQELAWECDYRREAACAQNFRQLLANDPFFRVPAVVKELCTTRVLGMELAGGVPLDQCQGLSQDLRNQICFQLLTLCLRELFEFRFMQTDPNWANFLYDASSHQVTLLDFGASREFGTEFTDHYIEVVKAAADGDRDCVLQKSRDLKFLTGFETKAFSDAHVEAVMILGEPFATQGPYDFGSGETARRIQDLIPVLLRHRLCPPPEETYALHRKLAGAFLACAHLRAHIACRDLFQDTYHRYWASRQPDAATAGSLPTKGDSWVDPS
Serine/threonine-protein kinase SIK2 (Homo sapiens), sequence (Q9H0K1 whole entry, looked up): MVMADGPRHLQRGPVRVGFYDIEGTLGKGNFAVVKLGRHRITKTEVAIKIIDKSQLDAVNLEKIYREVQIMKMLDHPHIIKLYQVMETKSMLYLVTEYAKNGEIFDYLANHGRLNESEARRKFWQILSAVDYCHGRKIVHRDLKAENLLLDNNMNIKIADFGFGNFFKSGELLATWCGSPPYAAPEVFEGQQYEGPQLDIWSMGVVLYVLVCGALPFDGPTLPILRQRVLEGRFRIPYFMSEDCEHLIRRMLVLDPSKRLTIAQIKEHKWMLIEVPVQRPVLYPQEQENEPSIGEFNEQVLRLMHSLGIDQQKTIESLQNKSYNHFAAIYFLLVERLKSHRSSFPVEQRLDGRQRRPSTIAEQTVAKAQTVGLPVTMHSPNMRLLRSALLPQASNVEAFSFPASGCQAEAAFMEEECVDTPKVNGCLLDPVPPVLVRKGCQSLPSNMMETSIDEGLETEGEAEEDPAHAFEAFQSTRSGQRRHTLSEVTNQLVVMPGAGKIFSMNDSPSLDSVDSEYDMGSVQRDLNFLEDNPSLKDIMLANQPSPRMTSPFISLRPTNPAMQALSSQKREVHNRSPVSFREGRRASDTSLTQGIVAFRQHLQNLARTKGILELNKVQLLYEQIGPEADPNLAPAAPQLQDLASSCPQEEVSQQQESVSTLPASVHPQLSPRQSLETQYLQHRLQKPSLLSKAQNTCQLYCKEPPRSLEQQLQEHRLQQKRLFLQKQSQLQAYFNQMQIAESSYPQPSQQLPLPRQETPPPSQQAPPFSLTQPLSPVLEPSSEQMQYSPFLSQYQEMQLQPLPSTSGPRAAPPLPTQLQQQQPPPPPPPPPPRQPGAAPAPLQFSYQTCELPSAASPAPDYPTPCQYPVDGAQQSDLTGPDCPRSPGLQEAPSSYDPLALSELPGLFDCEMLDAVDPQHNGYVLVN
Serine/threonine-protein kinase BRSK2 (Homo sapiens), sequence (Q8IWQ3 whole entry): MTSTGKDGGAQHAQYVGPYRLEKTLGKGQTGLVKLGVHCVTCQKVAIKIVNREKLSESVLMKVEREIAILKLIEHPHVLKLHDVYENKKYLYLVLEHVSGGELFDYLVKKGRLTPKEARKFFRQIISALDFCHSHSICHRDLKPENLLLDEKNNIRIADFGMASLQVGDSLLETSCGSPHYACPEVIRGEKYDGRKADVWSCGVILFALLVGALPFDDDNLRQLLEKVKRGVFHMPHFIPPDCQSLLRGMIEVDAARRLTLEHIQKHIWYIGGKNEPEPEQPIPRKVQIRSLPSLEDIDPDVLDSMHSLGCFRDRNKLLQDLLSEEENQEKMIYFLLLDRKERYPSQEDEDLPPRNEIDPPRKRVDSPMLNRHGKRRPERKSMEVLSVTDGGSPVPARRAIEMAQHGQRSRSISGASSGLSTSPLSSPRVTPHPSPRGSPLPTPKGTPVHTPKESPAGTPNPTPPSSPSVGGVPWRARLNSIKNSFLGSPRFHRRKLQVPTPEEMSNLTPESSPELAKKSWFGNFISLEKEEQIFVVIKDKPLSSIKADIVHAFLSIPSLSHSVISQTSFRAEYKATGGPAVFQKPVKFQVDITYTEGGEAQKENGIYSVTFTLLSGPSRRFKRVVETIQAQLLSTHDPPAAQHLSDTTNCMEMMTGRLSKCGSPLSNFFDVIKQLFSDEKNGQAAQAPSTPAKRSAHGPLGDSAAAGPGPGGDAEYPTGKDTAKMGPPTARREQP
LIM domain kinase 1 (Homo sapiens), sequence (P53667 whole entry, looked up, the tested form may be a part): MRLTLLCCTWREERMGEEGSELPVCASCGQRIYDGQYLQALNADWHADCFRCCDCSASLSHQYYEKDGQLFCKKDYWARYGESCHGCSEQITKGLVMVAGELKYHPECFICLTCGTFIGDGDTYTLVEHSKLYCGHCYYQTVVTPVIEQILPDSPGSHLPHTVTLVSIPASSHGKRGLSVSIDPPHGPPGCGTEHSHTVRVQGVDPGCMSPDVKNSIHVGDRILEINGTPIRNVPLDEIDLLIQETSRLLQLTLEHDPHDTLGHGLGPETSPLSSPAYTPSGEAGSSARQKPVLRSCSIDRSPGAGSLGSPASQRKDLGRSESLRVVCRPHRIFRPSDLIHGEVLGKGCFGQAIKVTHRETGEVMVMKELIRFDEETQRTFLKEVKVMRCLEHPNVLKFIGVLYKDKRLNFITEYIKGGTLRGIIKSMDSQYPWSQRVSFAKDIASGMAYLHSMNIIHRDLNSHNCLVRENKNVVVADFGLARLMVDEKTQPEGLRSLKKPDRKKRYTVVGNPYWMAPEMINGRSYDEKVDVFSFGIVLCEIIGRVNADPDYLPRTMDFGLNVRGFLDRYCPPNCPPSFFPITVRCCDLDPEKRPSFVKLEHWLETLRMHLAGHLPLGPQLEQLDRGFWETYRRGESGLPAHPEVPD
Tyrosine-protein kinase FRK (Homo sapiens), sequence (P42685 whole entry): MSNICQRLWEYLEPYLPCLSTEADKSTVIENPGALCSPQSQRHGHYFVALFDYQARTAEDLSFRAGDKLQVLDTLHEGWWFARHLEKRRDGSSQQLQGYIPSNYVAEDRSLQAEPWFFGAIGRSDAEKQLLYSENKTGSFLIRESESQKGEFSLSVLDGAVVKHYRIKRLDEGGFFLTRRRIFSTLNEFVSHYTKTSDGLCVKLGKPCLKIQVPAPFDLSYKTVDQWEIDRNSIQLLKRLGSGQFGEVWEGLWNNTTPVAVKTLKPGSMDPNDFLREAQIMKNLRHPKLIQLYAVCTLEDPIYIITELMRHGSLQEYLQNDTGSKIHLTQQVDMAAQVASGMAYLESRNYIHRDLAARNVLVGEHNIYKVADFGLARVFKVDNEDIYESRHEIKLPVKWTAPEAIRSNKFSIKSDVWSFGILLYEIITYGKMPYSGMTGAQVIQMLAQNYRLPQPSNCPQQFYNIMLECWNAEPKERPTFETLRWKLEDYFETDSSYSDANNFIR

C[C@H](c1ccc(F)cc1)N(Cc1cccc(C(=O)O)c1)C(=O)c1cnc2ccccc2c1 [PF-05105679]
inactive: residual activity [1] 100% | residual activity [2] 82% | residual activity [3] 100% | residual activity [4] 100% | residual activity [5] 100% | residual activity [6] 100% | residual activity [7] 100% | residual activity [8] 89% | residual activity [9] 85% | residual activity [10] 92% | residual activity [11] 100% | residual activity [12] 99% | residual activity [13] 100% | residual activity [14] 100% | residual activity [15] 83% | residual activity [16] 100% | residual activity [17] 100% | residual activity [18] 100% | residual activity [19] 80% | residual activity [20] 96% | residual activity [21] 92% | residual activity [22] 100% | inhibition [23] 21% | residual activity [24] 72% | residual activity [25] 77% | residual activity [26] 88% | residual activity [27] 100% | residual activity [28] 96% | residual activity [29] 100% | residual activity [30] 86% | residual activity [31] 91% | residual activity [32] 100% | residual activity [33] 87% | residual activity [34] 100% | inhibition [35] 12.6% | residual activity [36] 74% | residual activity [37] 100% | residual activity [38] 79% | residual activity [39] 81%
